Data on 22 compounds can be found in patent publication US9809573B2, “Substituted pyridine derivatives useful as GSK-3 inhibitors” (priority 2013, dated 2017).

One test relates to pTau. Kind of test: pTau assay (method not described). It is filed as cell-based.
Another test concerns the target GSK3α (Homo sapiens, UniProt P49840). Kind of test: biochemical. The gist of the method:
(§1)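 Eleven-point compound titrations (10 mM DMSO stocks) incubated with kinase and fluorescent peptide for 20 h at room temperature before EDTA quench. Substrate-to-product conversion measured by microfluidic mobility shift; IC50 from non-linear fitting.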

The next test has as its target GSK3β (Homo sapiens, UniProt P49841). Put plainly: GSK3β kinase assay (Caliper LabChip3000, fluoresceinated peptide substrate). The test is classed as biochemical. The method, boiled down:
as §1

[1] abbreviates: second value of the cell, 250 pM enzyme, 20 uM ATP, 20 hours at room temperature, read-out: GSK3β/α (nM): GSK3α IC50.
Setting [2] is: first value of the cell, 250 pM enzyme, 20 uM ATP, 20 hours at room temperature, read-out: GSK3β/α (nM): GSK3β IC50.

Where two headings read alike, the source gives them in different places.

GSK3β, sequence (P49841 whole entry, species assumed): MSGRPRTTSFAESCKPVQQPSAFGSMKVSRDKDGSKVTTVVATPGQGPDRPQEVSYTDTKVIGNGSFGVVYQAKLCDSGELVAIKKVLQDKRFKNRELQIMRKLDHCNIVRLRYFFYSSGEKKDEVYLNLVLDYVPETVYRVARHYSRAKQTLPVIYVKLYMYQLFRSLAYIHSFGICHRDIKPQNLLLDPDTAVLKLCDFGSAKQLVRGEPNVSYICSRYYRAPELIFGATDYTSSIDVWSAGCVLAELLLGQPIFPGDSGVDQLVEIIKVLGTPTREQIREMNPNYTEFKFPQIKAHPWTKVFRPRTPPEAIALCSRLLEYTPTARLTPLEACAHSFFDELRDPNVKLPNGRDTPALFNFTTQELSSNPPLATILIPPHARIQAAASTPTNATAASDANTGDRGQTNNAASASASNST
GSK3α, sequence (P49840 whole entry, species assumed): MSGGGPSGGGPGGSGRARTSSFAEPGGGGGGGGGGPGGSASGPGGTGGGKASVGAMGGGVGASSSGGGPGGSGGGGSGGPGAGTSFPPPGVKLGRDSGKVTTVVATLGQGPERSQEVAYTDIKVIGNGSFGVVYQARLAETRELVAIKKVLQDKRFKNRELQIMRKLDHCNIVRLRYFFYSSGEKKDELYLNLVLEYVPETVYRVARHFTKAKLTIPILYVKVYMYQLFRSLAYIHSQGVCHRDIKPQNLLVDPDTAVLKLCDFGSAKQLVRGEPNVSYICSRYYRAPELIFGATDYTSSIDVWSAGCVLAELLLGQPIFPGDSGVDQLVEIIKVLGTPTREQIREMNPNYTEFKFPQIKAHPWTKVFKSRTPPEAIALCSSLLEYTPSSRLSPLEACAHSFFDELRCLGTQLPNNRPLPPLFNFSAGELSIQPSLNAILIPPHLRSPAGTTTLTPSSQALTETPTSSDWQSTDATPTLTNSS

As to `O=C(Nc1cncc(-c2ccccc2)c1)c1ccnc(NC(=O)C2CCCC2)c1` [Example 232, 2-(cyclopentanecarboxamido)-N-(5-phenylpyridin-3-yl)isonicotinamide], the IC50 is 330 nM in the test with pTau (read-out: pTau), 0.51 nM at GSK3α (setting [1]) and 1.2 nM at GSK3β.
Take `CC(C)(F)C(=O)Nc1cc(C(=O)Nc2cnccc2-c2ccccc2)ccn1` [Example 205, 2-(2-Fluoro-2-methylpropanamido)-N-(4-phenylpyridin-3-yl)isonicotinamide]: the values for the IC50 with pTau (read-out: pTau (nM)), at GSK3α (setting [1]) and on GSK3β were 5100 nM, 52 nM and 49 nM, respectively.
With `CC(C)c1ccc(-c2ccncc2NC(=O)c2ccnc(NC(=O)C3CC3)c2)cc1` [Example 75, 2-(Cyclopropanecarboxamido)-N-(4-(4-isopropylphenyl)pyridine-3-yl)isonicotinamide], the values for the IC50 in the test on pTau (read-out: pTau), on GSK3α (setting [1]) and at GSK3β (setting [2]) were 460 nM, 7.4 nM and 30 nM, respectively.
Consider `O=C(Nc1cnccc1I)c1ccnc(NC(=O)C2CC2)c1` [Example 19, 2-(Cyclopropanecarboxamido)-N-(4-iodopyridin-3-yl)isonicotinamide], for which the IC50 in the test on pTau (read-out: pTau) amounted to 35 nM; at GSK3α (setting [1]) it was 0.96 nM; at GSK3β (setting [2]) it was 1.4 nM.
Take `O=C(Nc1cnccc1N1CCCC(F)(F)C1)c1ccnc(NC(=O)C2CC2)c1` [Example 80, 2-(Cyclopropanecarboxamido)-N-(4-(3,3-difluoropiperidin-1-yl)pyridin-3-yl)isonicotinamide]: the IC50 in the test with pTau (read-out: pTau) came to 34 nM; at GSK3α (setting [1]), 0.46 nM; at GSK3β (setting [2]), 1.5 nM.
With `O=C(Nc1cncc(-c2ccccc2)c1)c1ccnc(NC(=O)C2CCC(F)(F)C2)c1` (stereo not drawn) [Example 233, 2-(3,3-difluorocyclopentanecarboxamido)-N-(5-phenylpyridin-3-yl)isonicotinamide], the IC50 is 340 nM with pTau (read-out: pTau), 0.33 nM on GSK3α (setting [1]) and 1 nM at GSK3β (setting [2]).
Take `O=C(Nc1cnccc1-c1ccccc1)c1ccnc(NC(=O)C2CCCC2)c1` [Example 227, 2-(Cyclopentanecarboxamido)-N-(4-phenylpyridin-3-yl)isonicotinamide]: the figures for the IC50 in the test with pTau (read-out: pTau (nM)), on GSK3α and against GSK3β were 47 nM, 1.4 nM and 1.6 nM, respectively.
Take `Cn1c(-c2ccncc2NC(=O)c2ccnc(NC(=O)C3CC3)c2)cc2ccccc21` [Example 96, 2-(Cyclopropanecarboxamido)-N-(4-(1-methyl-1H-indol-2-yl)pyridin-3-yl)isonicotinamide]: the IC50 came out at 66 nM in the test with pTau (read-out: pTau), 1.7 nM on GSK3α (setting [1]) and 4.1 nM on GSK3β (setting [2]).
Taken in the same sequence, the figures for `O=C(Nc1cnccc1-c1ccc(C(F)(F)F)cc1)c1ccnc(NC(=O)C2CC2)c1` [Example 56, 2-(Cyclopropanecarboxamido)-N-(4-(4-(trifluoromethyl)phenyl)pyridin-3-yl)isonicotinamide] were 230 nM, 8.4 nM and 13 nM.
In the same order, the values of `O=C(Nc1cnn(CC(F)(F)F)c1)c1ccnc(NC(=O)C2CC2)c1` [Example 172, 2-(cyclopropanecarboxamido)-N-(1-(2,2,2-trifluoroethyl)-1H-pyrazol-4-yl)isonicotinamide] are 700 nM, 14 nM and 35 nM.
`O=C(Nc1cnccc1C(O)C(F)(F)F)c1ccnc(NC(=O)C2CC2)c1` (stereo not drawn) [Example 23, 2-(Cyclopropanecarboxamido)-N-(4-(2,2,2-trifluoro-1-hydroxyethyl)pyridin-3-yl)isonicotinamide]: the IC50 with pTau (read-out: pTau (nM)) is 48 nM; on GSK3α it was 2.4 nM; at GSK3β, 5.8 nM.
Take `O=C(Nc1cnccc1-c1ccc(Br)cc1)c1ccnc(NC(=O)C2CC2)c1` [Example 168, N-(4-(4-bromophenyl)pyridin-3-yl)-2-(cyclopropanecarboxamido)isonicotinamide]: the IC50 in the test on pTau (read-out: pTau) was 240 nM; at GSK3α (setting [1]) it was 2.2 nM; at GSK3β (setting [2]), 6.8 nM.
In the same order, the values of `O=C(Nc1cncc(C2CC2)c1)c1ccnc(NC(=O)C2CC2)c1` [Example 22, 2-(Cyclopropanecarboxamido)-N-(5-cyclopropylpyridin-3-yl)isonicotinamide] are 250 nM, 2.4 nM and 7.1 nM.
As for `C[C@@H]1CN(c2ccncc2NC(=O)c2ccnc(NC(=O)C3CC3)c2)C[C@H](C)O1` [Example 79, 2-(Cyclopropanecarboxamido)-N-(4-((2S,6R)-2,6-dimethylmorpholino)pyridin-3-yl)isonicotinamide], the values for the IC50 in the test with pTau (read-out: pTau), on GSK3α (setting [1]) and on GSK3β were 190 nM, 5.5 nM and 14 nM, respectively.
With `COc1ccnc(-c2ccccc2)c1NC(=O)c1ccnc(NC(=O)C2CC2)c1` [Example 62, 2-(Cyclopropanecarboxamido)-N-(4-methoxy-2-phenylpyridin-3-yl)isonicotinamide], the IC50 in the test with pTau (read-out: pTau) amounted to 310 nM; on GSK3α (setting [1]) it was 4.8 nM; at GSK3β (setting [2]), 2.6 nM.
Taken in the same sequence, the figures for `O=C(Nc1cnccc1-c1cncnc1)c1ccnc(NC(=O)C2CC2)c1` [Example 64, 2-(Cyclopropanecarboxamido)-N-(4-(pyrimidin-5-yl)pyridin-3-yl)isonicotinamide] were at least 10000 nM, 76 nM and 97 nM.
For the compound `O=C(Nc1cnccc1-c1ccccc1)c1ccnc(NC(=O)C2CCC2)c1` [Example 212, 2-(Cyclobutanecarboxamido)-N-(4-phenylpyridin-3-yl)isonicotinamide], the IC50 with pTau (read-out: pTau (nM)) amounted to 96 nM; at GSK3α it was 4.4 nM; against GSK3β it was 4.3 nM.
In the case of `O=C(Nc1cnccc1-c1ccccc1)c1ccnc(NC(=O)[C@@H]2CC[C@@H](O)C2)c1` (relative stereo) [Example 230, 2-((1,3-Trans)-3-hydroxycyclopentanecarboxamido)-N-(4-phenylpyridin-3-yl)isonicotinamide], the figures for the IC50 in the test with pTau (read-out: pTau (nM)), on GSK3α and against GSK3β were 73 nM, 0.68 nM and 2.5 nM, respectively.
Regarding `O=C(Nc1cncc(-c2ccc(Cl)cc2Cl)c1)c1ccnc(NC(=O)C2CC2)c1` [Example 148, 2-(cyclopropanecarboxamido)-N-(5-(2,4-dichlorophenyl)pyridin-3-yl)isonicotinami], the IC50 was 620 nM with pTau (read-out: pTau), 2.4 nM on GSK3α (setting [1]) and 9.7 nM on GSK3β (setting [2]).
With `O=C(Nc1cncc(-c2ccccc2F)c1)c1ccnc(NC(=O)C2CC2)c1` [Example 116, 2-(cyclopropanecarboxamido)-N-(5-(2-fluorophenyl)pyridin-3-yl)isonicotinamide], the IC50 with pTau (read-out: pTau (nM)) came to 180 nM; against GSK3α it was 0.28 nM; against GSK3β it was 0.35 nM.
For `O=C(Nc1cnccc1-c1ccc(Cl)cc1)c1ccnc(NC(=O)C2CC(F)C2)c1` (single isomer, unassigned) [Example 223, N-(4-(4-chlorophenyl)pyridin-3-yl)-2-((1,3-cis)-3-fluorocyclobutanecarboxamido)isonicotinamide], the IC50 with pTau (read-out: pTau) is 150 nM; at GSK3α (read-out: GSK3β/α (nM): GSK3α IC50, second value of the cell, 250 pM enzyme, 20 uM ATP, 20 hours at room temperature), 3.1 nM; at GSK3β (read-out: GSK3β/α (nM): GSK3β IC50, first value of the cell, 250 pM enzyme, 20 uM ATP, 20 hours at room temperature), 6.9 nM.
`CN(C)C(=O)c1ccc(-c2ccncc2NC(=O)c2ccnc(NC(=O)C3CC3)c2)c(F)c1` [Example 92, 2-(Cyclopropanecarboxamido)-N-(4-(4-(dimethylcarbamoyl)-2-fluorophenyl)pyridin-3-yl)isonicotinamide]: the IC50 with pTau (read-out: pTau) is 460 nM; on GSK3α (setting [1]) it was 11 nM; at GSK3β (setting [2]), 24 nM.
